# Experimental data reported in patent publication US10837969B2, “Therapeutic and diagnostic methods for autism spectrum disorders and other conditions” (THE JOHNS HOPKINS UNIVERSITY, priority 2012, dated 2020).
# Tests used:
# [1] = target: T1, AT-1 receptor (Homo sapiens, UniProt P30556); conditions: in vitro, IgG from pre-eclamptic patients; cited from earlier work
# T1 construct: found prominent expression of the receptor on the cell surface; endogenous in cells; host or cells: human fetal brain-derived neural stem/progenitor cells (NSC/NPC), 7-8 weeks gestation
# T1 sequence (P30556 1-359): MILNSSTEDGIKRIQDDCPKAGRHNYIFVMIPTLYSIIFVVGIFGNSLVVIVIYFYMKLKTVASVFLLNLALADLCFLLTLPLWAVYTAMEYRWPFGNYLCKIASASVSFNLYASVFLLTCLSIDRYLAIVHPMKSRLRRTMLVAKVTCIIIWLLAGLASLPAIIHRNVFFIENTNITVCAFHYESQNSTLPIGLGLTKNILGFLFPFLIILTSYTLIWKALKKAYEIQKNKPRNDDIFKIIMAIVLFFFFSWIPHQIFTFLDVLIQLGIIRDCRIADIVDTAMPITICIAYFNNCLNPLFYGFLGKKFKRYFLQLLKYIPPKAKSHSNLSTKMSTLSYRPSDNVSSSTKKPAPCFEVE
# [2] = system: NSC treated with MCAD-IgG; assay: Attenuation of MCAD-IgG effect on NSC differentiation (beta-III tubulin/GFAP immunostaining); type: cell-based, human
# Method: Cell Proliferation and Differentiation Assays. Cell proliferation was assessed by BrdU incorporation. The cells were first treated with MCAD or control antibodies for 18 hours and then for 6 hours with BrdU (Sigma) followed by immunostaining for BrdU. When subjected to differentiation, media was replaced with DMEM/F12 containing 2% FBS. The NPC were capable of differentiating into neurons (40-60%) and astrocytes (20-50%) after 4-7 days. Immunocytochemistry. Cells were fixed in 4% (w/v) paraformaldehyde and permeabilized by incubation in 0.5% (v/v) Triton X-100 in PBS (PBS-T) for 20 min. For BrdU staining, the cells were also denatured in 2N HCl at 37° C. for 30 min and rinsed twice in 0.1 M sodium borate, pH 8.5. Cells were immunostained using monoclonal anti-BrdU (1:1000; Sigma-Aldrich), monoclonal anti-β-III-tubulin (1:1000; Promega), rabbit anti-GFAP (1:1000; Sigma-Aldrich), monoclonal anti-AT-1 (1:50; Abcam, Cambridge Mass.) or rabbit anti-active caspase-3 (1:1000; Sigma-Aldrich), followed by corresponding secondary antibodies (anti-rabbit Alexa Fluor 488, 1:400; anti-mouse Alexa Fluor […], 1:400; Invitrogen) and 4′,6-diamidino-2-phenylindole (DAPI) for nuclear staining. Images were acquired on a Zeiss LSM 510 META multiphoton confocal system (Carl Zeiss). […] Neurogenesis was determined after 4 days using immunostaining for beta-III tubulin and GFAP.
# [3] = system: human NSC; assay: NSC proliferation by BrdU incorporation; type: cell-based; conditions: preliminary in vitro study
# Method: Cell Cultures. Reagents for cell culture were purchased from Invitrogen (Carlsbad, Calif.) if not otherwise specified. Human NPC were cultured as published previously ^24 in accordance with NIH guidelines and following approval by the Institutional Review Board at Johns Hopkins University and the National Institutes of Health. Briefly, human fetal brain specimens of 7-8 weeks gestation were obtained from Birth Defects Research Laboratory, University of Washington, Seattle. The tissues were then triturated into single cells after removing meninges and blood vessels. […] NSC cultures were ready for experiments 4-5 days after replating and >98% of the cells expressed the neural stem cell marker, nestin while <1% of the cells expressed glial fibrillary acidic protein (GFAP, a marker for astrocytes) or beta-III tubulin (a neuronal cell marker) as determined by immunocytochemistry.
# Cell Proliferation and Differentiation Assays. Cell proliferation was assessed by BrdU incorporation. […]
# MCAD-IgG Inhibits NSC Proliferation. […] The number of proliferating cells were determined by calculating the percentage of BrdU immunopositive cells. […] Cell toxicity was also evaluated using cellquanti-blue assay. […]
# [4] = system: NSC; assay: CellQuanti-Blue cytotoxicity assay; type: cell-based; conditions: higher concentrations, 10-100 uM
# Method: Cytotoxicity Assays. Cytotoxicity was determined by using CellQuanti-Blue Cell Viability Assay kit (BioAssay Systems) as previously published^24. Briefly, NSCs were cultured in poly-D-lysine coated 96-well plates and used for experiments at ˜60% confluence. […] After 24 hours, CellQuanti-Blue solution (10 μl/well) was added and the cells were incubated for 1 hour. The fluorescence was quantified at an excitation wavelength of 530 nm and emission wavelength of 590 nm using a fluorescence plate reader.
# MCAD-IgG Inhibits NSC Proliferation. The effect of MCAD on NSC proliferation was studied by exposing cultured human NSC to corresponding concentrations (1:500 to 1:50) of MCAD or MUC antibodies for 24 hours in the presence of BrdU for the last 6 hours. The number of proliferating cells were determined by calculating the percentage of BrdU immunopositive cells. […] Another group of NSC similarly treated with the MCAD or MUC antibodies were also immunostained for active-caspase-3 to determine if MCAD-IgG could induce apoptosis in these cells. […] Cell toxicity was also evaluated using cellquanti-blue assay. To exclude the effect of cell proliferation, NSC cultures were treated with MCAD- or MUC-IgG in growth factor-free media for 24 hours before the cellquanti-blue solution was added. […] Thus MCAD-IgG inhibited NSC proliferation without causing cell death.
compound,measurement,setting,value
CCCCc1nc(Cl)c(CO)n1Cc1ccc(-c2ccccc2-c2nn[nH]n2)cc1 [losartan],blockade of patient IgG-induced constriction of villus veins and arteries,[1],could be blocked
"Fc1ccc([C@@H]2CCNC[C@H]2COc2ccc3c(c2)OCO3)cc1 [Paroxetine, paroxetine]",effect on MCAD-IgG caused inhibition of neurogenesis and enhanced astroglial differentiation,"[2]; 20 nM-2 uM, 1 hour prior to MCAD-IgG (1:50), after 4 days",reversed MCAD-IgG caused inhibition of neurogenesis and enhanced astroglial differentiation
same,proliferation of NSC,[3],increased proliferation of NSC in a concentration-dependent manner
CCCc1nc2c(C)cc(-c3nc4ccccc4n3C)cc2n1Cc1ccc(-c2ccccc2C(=O)O)cc1 [Telmisartan],effect on MCAD-IgG caused changes in neuronal and astroglial differentiation,"[2]; 10 nM, pretreatment 30 min prior to IgG",significantly attenuated MCAD-IgG caused effect on neuronal and astroglial differentiation
same,"toxicity in cells, cellquanti-blue",[4],caused toxicity in cells
